The values that follow come from patent US5225583A, “Alkyl-aryl 1,3-propanedione silicone derivative and an external preparation for skin with the derivative compounded therein” (Shiseido Co., Ltd., priority 1991, dated 1993).

Data set [1] in a line: Test for solubility of alkyl-aryl 1,3-propanedione silicone derivative in silicone-based oils and Squalene at 25° C. The settings on record: for Solubility, Scwr, 30% / Solubility, Scwr, 50%: Scwr (Squalene); for Solubility, Scwr, 30%: 30% (w/w); for Solubility, Scwr, 50%: 50% (w/w); for Solubility, Silicon KF56, 30%: Silicone KF 56, 30% (w/w); for Solubility, Silicon KF56, 50%: Silicone KF 56, 50% (w/w); for Solubility, Sil. KF96, 30%: Silicone KF96, 30% (w/w); for Solubility, Sil. KF96, 50%: Silicone KF96, 50% (w/w). It counts as physicochemical. How it is done: A circle (O) mark is put to a compound which is completely dissolved under 25° C., and a cross (X) mark is put to a compound which makes the solution cloudy even a little.

A short description of data set [2]: Ultraviolet ray absorption spectrum. It counts as physicochemical. On the set-up: ε: unit not given beside the values. The settings on record: for ε: at λmax; for λmax: ultraviolet ray absorption.

With `COc1cc(C(=O)CC(=O)C(C)(C)C)ccc1OCCC[Si](C)(C)O[Si](C)(C)C` [Compound 1], in data set [1], the “Solubility, Scwr, 30%” value is given as “.largecircle”; the “Solubility, Scwr, 50%” value is on record as “.largecircle”; the “Solubility, Silicon KF56, 30%” value is listed as “.largecircle”; the “Solubility, Silicon KF56, 50%” value is “.largecircle”. Moreover, in data set [1], the “Solubility, Sil. KF96, 30%” value is recorded as “.largecircle” and the “Solubility, Sil. KF96, 50%” value is listed as “.largecircle”. For the same compound, in data set [2], the ε was determined as 24090 and the λmax is 335 nm.
Take `COc1cc(C(=O)CC(=O)C(C)(C)C)ccc1OCCC[Si](C)(O[Si](C)(C)C)O[Si](C)(C)C` [Compound 2]: in data set [1], the “Solubility, Scwr, 30%” value is on record as “.largecircle”; the “Solubility, Scwr, 50%” value was “.largecircle”; the “Solubility, Silicon KF56, 30%” value is “.largecircle”; the “Solubility, Silicon KF56, 50%” value is reported as “.largecircle”. For the same compound, in data set [1], the “Solubility, Sil. KF96, 30%” value is “.largecircle” and the “Solubility, Sil. KF96, 50%” value is recorded as “.largecircle”. In data set [2], the ε is reported as 23550 and the λmax was 334 nm.
With `COc1ccc(C(=O)CC(=O)C(C)(C)C)cc1OCCC[Si](C)(O[Si](C)(C)C)O[Si](C)(C)C` [Compound 3], in data set [1], the “Solubility, Scwr, 30%” value was “.largecircle”; the “Solubility, Scwr, 50%” value is listed as “.largecircle”; the “Solubility, Silicon KF56, 30%” value was “.largecircle”; the “Solubility, Silicon KF56, 50%” value was “.largecircle”. In data set [1], the “Solubility, Sil. KF96, 30%” value is “.largecircle” and the “Solubility, Sil. KF96, 50%” value is “.largecircle”.
On to `CCCCC(CC)C(=O)CC(=O)c1cc(CCC[Si](C)(O[Si](C)(C)C)O[Si](C)(C)C)c(OC)c(OC)c1` (centres unmarked) [Compound 5], for which, in data set [1], the “Solubility, Scwr, 30%” value is on record as “.largecircle”; the “Solubility, Scwr, 50%” value was “.largecircle”; the “Solubility, Silicon KF56, 30%” value is “.largecircle”; the “Solubility, Silicon KF56, 50%” value is “.largecircle”. In data set [1], the “Solubility, Sil. KF96, 30%” value is recorded as “.largecircle” and the “Solubility, Sil. KF96, 50%” value is “.largecircle”. In addition, in data set [2], the ε came out at 23500 and the λmax is listed as 334 nm.
For `CCCCC(CC)C(=O)CC(=O)c1cc(CCC[Si](C)(O[Si](C)(C)C)O[Si](C)(C)C)c(OC)c(OC)c1` (centres unmarked) [Compound 6], in data set [1], the “Solubility, Scwr, 30%” value is reported as “.largecircle”; the “Solubility, Scwr, 50%” value was “.largecircle”; the “Solubility, Silicon KF56, 30%” value is “.largecircle”; the “Solubility, Silicon KF56, 50%” value was “.largecircle”. In addition, in data set [1], the “Solubility, Sil. KF96, 30%” value is on record as “.largecircle” and the “Solubility, Sil. KF96, 50%” value is given as “.largecircle”.
Consider `COc1cc(C(=O)CC(=O)C(C)(C)C)ccc1OCC(C)C[Si](C)(O[Si](C)(C)C)O[Si](C)(C)C` (centres unmarked) [Compound 7], for which, in data set [1], the “Solubility, Scwr, 30%” value is “.largecircle”; the “Solubility, Scwr, 50%” value was “.largecircle”; the “Solubility, Silicon KF56, 30%” value is listed as “.largecircle”; the “Solubility, Silicon KF56, 50%” value is reported as “.largecircle”. In data set [1], the “Solubility, Sil. KF96, 30%” value is given as “.largecircle” and the “Solubility, Sil. KF96, 50%” value is “.largecircle”. In data set [2], this compound displayed a ε of 27350 and a λmax of 334 nm.
Regarding `COc1cc(C(=O)CC(=O)C(C)(C)C)ccc1OCCCCC[Si](C)(O[Si](C)(C)C)O[Si](C)(C)C` [Compound 8], in data set [1], the “Solubility, Scwr, 30%” value was “.largecircle”; the “Solubility, Scwr, 50%” value is listed as “.largecircle”; the “Solubility, Silicon KF56, 30%” value was “.largecircle”; the “Solubility, Silicon KF56, 50%” value was “.largecircle”. Besides, in data set [1], the “Solubility, Sil. KF96, 30%” value is listed as “.largecircle” and the “Solubility, Sil. KF96, 50%” value is “.largecircle”. In data set [2], this compound gave a ε of 23220 and a λmax of 334 nm.
Consider `COc1cc(C(=O)CC(=O)C(C)(C)C)cc(CCC[Si](C)(O[Si](C)(C)C)O[Si](C)(C)C)c1O` [Compound 9], for which, in data set [1], the “Solubility, Scwr, 30%” value is given as “.largecircle”; the “Solubility, Scwr, 50%” value was “.largecircle”; the “Solubility, Silicon KF56, 30%” value is recorded as “.largecircle”; the “Solubility, Silicon KF56, 50%” value is given as “.largecircle”. In addition, the “Solubility, Sil. KF96, 30%” value in data set [1] is listed as “.largecircle”. For the same compound, in data set [2], the ε was 24000 and the λmax worked out at 342 nm.
